From patent publication EP2143422A1, “Ophthalmic compositions containing gemifloxacin for the treatment of ocular infections” (S.I.F.I - SOCIETÀ INDUSTRIA FARMACEUTICA ITALIANA - S.P.A., priority 2008, dated 2010)
Values after ≈ are worked out from the molar mass of the structure shown. Read-outs that look alike come from different tables or passages of the source.

Legend:
[1] = test system: ocular St. aureus isolate (7786); test: In vivo effectiveness: bacterial load (CFU/g) in cornea, bacterial keratitis model; parameters: species or system New Zealand albino rabbits
Procedure: (§1) The effectiveness and accumulation of gemifloxacin in the cornea and aqueous humour were determined in vivo after administration of the 0.3% gemifloxacin compositions (emulsion and aqueous solution) and compared to 0.3% norfloxacin and ofloxacin in aqueous solution, in New Zealand albino rabbits having been induced with bacterial keratitis (Survey of Ophthalmology, vol. 50, suppl. Nov. 2005, p.S32-S48) by intrastromal injection of an inoculum of an ocular St. aureus isolate (7786).
(§2) Male New Zealand albino rabbits were used (Harlan Italia) into which the keratitis had been induced - following anaesthesia with ketamine (37.5 mg/kg) and xylazine (10 mg/kg) by intramuscular means and novesine by topical means (2 drops per eye) - by intrasomal injection of a suspension of the ocular St. aureus isolate 7786 in PBS (Phosphate Buffered Solution). The injection was carried out using an insulin syringe with a 30-gauge needle in each cornea of each rabbit.
(§3) In the first experiment the following treatments were compared: 0.15% aqueous gemifloxacin solution, 0.3% aqueous gemifloxacin solution, 0.3% aqueous norfloxacin solution and physiological solution (0.9% NaCl) as control. The treatment was undertaken every 2 hours over 3 consecutive treatment days (5 administrations/day). The tissues were collected an hour after the last treatment, with the end point being after one day and after three days of treatment.
(§4) In the second experiment the following treatment groups were compared: 0.3% aqueous gemifloxacin solution, 0.3% gemifloxacin emulsion, 0.3% aqueous ofloxacin solution and physiological solution (0.9% NaCl) as control. The treatment was carried out every hour for only one day of treatment (7 administrations/day). The tissues were collected from the animals in each group, killed one hour after the last treatment.
All the compositions used in the two experiments described were administered at 50 µl per treatment.
The bacterial load of each sample was determined by counting CFUs (Colony Forming Units) on a filter and plate, to be reported as CFU/g of tissue.

Ps. aeruginosa = test: E-test (Epsilometer-test), in vitro antibacterial effectiveness; format: cell-based; conditions: Pseudomonas aeruginosa; 8 ocular isolates of Ps. aeruginosa
Description: (§5) In order to assay the effectiveness of gemifloxacin against the most representative pathogenic strains in ophthalmic infections, its activity was verified in vitro, in terms of MIC50 and MIC90 with the E-test method described by V. […] The following ATCC bacterial strains were also included: Staphylococcus aureus 25923, Staphylococcus aureus 29213, Staphylococcus aureus 43300, S. epidermidis 35984, Pseudomonas aeruginosa 27853 and Pseudomonas aeruginosa 9027.

Serratia marcescens = test: as above; format: cell-based; conditions: 5 ocular isolates of Serratia marcescens
Description: as §5

[2] = In vivo pharmacokinetic test: ocular tissue distribution after single ophthalmic administration; parameters: species or system pigmented rabbits; conditions: rabbit, topical, 30 µl of 0.3% solution per eye
Procedure: The penetration capacity of gemifloxacin was determined in the cornea, conjunctiva, aqueous humour and iris-ciliary body after single ophthalmic administration (30 µl) of the solution at 0.3% in both eyes of pigmented rabbits. The tissues were collected at the following times: 15 minutes, 30 minutes, 1, 2, 4, 8, 12, 24 and 48 hours. Quantitative analysis of the samples was carried out by a LC/MS/MS method after suitable extraction of the active principle from the tissue and expressed as µg/g or µg/ml of tissue.

St. aureus [3] = test: E-test (Epsilometer-test), in vitro antibacterial effectiveness; format: cell-based; conditions: 27 ocular isolates of St. aureus
Description: (§6) In order to assay the effectiveness of gemifloxacin against the most representative pathogenic strains in ophthalmic infections, its activity was verified in vitro, in terms of MIC50 and MIC90 with the E-test method described by V. Lorian in "Antibiotics in laboratory medicine" (IV ed. 1996, 23-28) and compared to moxifloxacin, ciprofloxacin, levofloxacin and ofloxacin against 85 ocular bacterial isolates subdivided as follows: • 27 St. aureus, 29 S. epidermidis, 16 Coagulase Negative Staphylococci (CNS), 8 Ps. aeruginosa and 5 Serratia marcescens. The following ATCC bacterial strains were also included: Staphylococcus aureus 25923, Staphylococcus aureus 29213, Staphylococcus aureus 43300, S. epidermidis 35984, Pseudomonas aeruginosa 27853 and Pseudomonas aeruginosa 9027.
(§7) The staphylococci also included methicillin resistant strains (MRSA and MRSE).

St. epidermidis = test: as above; format: cell-based; conditions: Staphylococcus epidermidis; 29 ocular isolates of St. epidermidis
Description: as §6, §7

St. coagulase negative = test: as above; format: cell-based, Coagulase Negative Staphylococci (CNS); conditions: 16 ocular isolates
Description: as §6, §7

[4] = parameters: species or system New Zealand albino rabbits; conditions: male, New Zealand albino, rabbit, in vivo
Procedure: as §1, §2, §3, §4
All the compositions used in the two experiments described were administered at 50 µl per treatment. […]
The fluorescence value obtained was interpolated using the relative standard curve and expressed as nanograms/ml or nanograms/g of tissue.

St. aureus [5] = conditions: literature, cited from earlier work
[6] = first experiment, 0.3% aqueous solution, every 2 hours, 5 administrations/day, after one and three days, compared with control (gemifloxacin also vs norfloxacin)
[7] = conjunctiva, single ophthalmic administration (30 µl) of 0.3% solution
[8] = cornea, single ophthalmic administration (30 µl) of 0.3% solution
[9] = Staphylococcus aureus, read-out: MIC90

| MIC50 (Ps. aeruginosa) [µg/mL] | MIC90 (Ps. aeruginosa) [µg/mL] | MIC50 (Serratia marcescens) [µg/mL] | MIC90 (Serratia marcescens) [µg/mL] | MIC50 (St. aureus [3]; Staphylococcus aureus) [µg/mL] | MIC90 (St. aureus [3]; [9]) [µg/mL] | MIC50 (St. epidermidis) [µg/mL] | MIC90 (St. epidermidis) [µg/mL] | MIC50 (St. coagulase negative) [µg/mL] | MIC90 (St. coagulase negative) [µg/mL] | SMILES | reduction in bacterial load in the cornea [1, 6] | concentration in the cornea relative to MIC for St. aureus [4] | further results |
| --- | --- | --- | --- | --- | --- | --- | --- | --- | --- | --- | --- | --- | --- |
| 0.125 (≈ 0.321 µM) | 0.25 (≈ 0.642 µM) | 0.125 (≈ 0.321 µM) | 0.19 (≈ 0.488 µM) | 0.032 (≈ 0.0822 µM) | 0.064 (≈ 0.164 µM) | 0.023 (≈ 0.0591 µM) | 0.094 (≈ 0.241 µM) | 0.016 (≈ 0.0411 µM) | 0.047 (≈ 0.121 µM) | CO/N=C1\CN(c2nc3c(cc2F)c(=O)c(C(=O)O)cn3C2CC2)CC1CN (racemic) [Gemifloxacin, (R,S)-7-(3-aminomethyl-4-methoxyiminopyrrolidin-1yl)-1-cyclopropyl-6-fluoro-4-oxo-1,4-dihydro-1,8-naphthyridin-3-carboxylic acid] | statistically significant reduction in bacterial load |  | reduction in bacterial load in the cornea ([1]; first experiment, 0.15% aqueous solution, every 2 hours, 5 administrations/day, after one and three days, compared to control and 0.3% norfloxacin): statistically significant reduction in bacterial load; reduction in bacterial load in the cornea ([1]; second experiment, 0.3% aqueous solution, every hour, 7 administrations, one day, compared to control): statistically significantly reduce; reduction in bacterial load in the cornea ([1]; second experiment, 0.3% emulsion, every hour, 7 administrations, one day, compared to control): statistically significantly reduce; reduction in bacterial load relative to the reduction effected by ofloxacin ([1]; second experiment, gemifloxacin-containing compositions (0.3% aqueous solution and 0.3% emulsion) vs 0.3% ofloxacin solution): statistically significant; Cmax ([2]; aqueous humour, single administration of 0.3% aqueous solution, healthy eyes): 26 ng/mL; Tmax ([2]; aqueous humour, single ophthalmic administration (30 µl) of 0.3% solution): 2 h; Cmax ([2]; conjunctiva, single administration of 0.3% aqueous solution, healthy eyes): 980 ng/mL; Cmax [2, 7]: 980 ng/g; Tmax [2, 7]: 0.25 h; Cmax ([2]; cornea, single administration of 0.3% aqueous solution, healthy eyes): 2600 ng/mL; Cmax [2, 8]: 2600 ng/g; Tmax [2, 8]: 0.25 h; Cmax ([2]; iris-ciliary body, single administration of 0.3% aqueous solution, healthy eyes): 460 ng/g; Tmax ([2]; iris-ciliary body, single ophthalmic administration (30 µl) of 0.3% solution): 2 h |
| 0.125 (≈ 0.377 µM) | 0.25 (≈ 0.754 µM) | 0.064 (≈ 0.193 µM) | 0.125 (≈ 0.377 µM) | 0.5 (≈ 1.51 µM) | > 32 | 0.19 (≈ 0.573 µM) | 0.5 (≈ 1.51 µM) | 0.25 (≈ 0.754 µM) | 0.25 (≈ 0.754 µM) | O=C(O)c1cn(C2CC2)c2cc(N3CCNCC3)c(F)cc2c1=O [Ciprofloxacin] |  |  |  |
| 0.5 (≈ 1.25 µM) | 1 (≈ 2.49 µM) | 0.19 (≈ 0.473 µM) | 0.38 (≈ 0.947 µM) | 0.064 (≈ 0.159 µM) | 0.38 (≈ 0.947 µM) | 0.047 (≈ 0.117 µM) | 0.094 (≈ 0.234 µM) | 0.047 (≈ 0.117 µM) | 0.094 (≈ 0.234 µM) | COc1c(N2C[C@@H]3CCCN[C@@H]3C2)c(F)cc2c(=O)c(C(=O)O)cn(C3CC3)c12 [Moxifloxacin] |  |  |  |

More lines, now with the values behind:

| SMILES | MIC50 (Ps. aeruginosa) [µg/mL] | MIC90 (Ps. aeruginosa) [µg/mL] | MIC50 (Serratia marcescens) [µg/mL] | MIC90 (Serratia marcescens) [µg/mL] | MIC50 (St. aureus [3]; Staphylococcus aureus) [µg/mL] | MIC90 (St. aureus [3]; [9]) [µg/mL] | MIC50 (St. epidermidis) [µg/mL] | MIC90 (St. epidermidis) [µg/mL] | MIC50 (St. coagulase negative) [µg/mL] | MIC90 (St. coagulase negative) [µg/mL] | reduction in bacterial load in the cornea [1, 6] | concentration in the cornea relative to MIC for St. aureus [4] | further results |
| --- | --- | --- | --- | --- | --- | --- | --- | --- | --- | --- | --- | --- | --- |
| C[C@H]1COc2c(N3CCN(C)CC3)c(F)cc3c(=O)c(C(=O)O)cn1c23 [Levofloxacin] | 0.5 (≈ 1.38 µM) | 0.75 (≈ 2.08 µM) | 0.125 (≈ 0.346 µM) | 0.25 (≈ 0.692 µM) | 0.25 (≈ 0.692 µM) | 0.75 (≈ 2.08 µM) | 0.19 (≈ 0.526 µM) | 0.38 (≈ 1.05 µM) | 0.25 (≈ 0.692 µM) | 0.25 (≈ 0.692 µM) |  |  |  |
| CC1COc2c(N3CCN(C)CC3)c(F)cc3c(=O)c(C(=O)O)cn1c23 (stereo not shown) [Ofloxacin] | 0.5 (≈ 1.38 µM) | 1 (≈ 2.77 µM) | 0.19 (≈ 0.526 µM) | 0.38 (≈ 1.05 µM) | 0.5 (≈ 1.38 µM) | 1.5 (≈ 4.15 µM) | 0.25 (≈ 0.692 µM) | 16 (≈ 44.3 µM) | 0.25 (≈ 0.692 µM) | 0.5 (≈ 1.38 µM) |  | near to its MIC50 | MIC90 (St. aureus [3]): 1.5 µg/mL (≈ 4.15 µM); MIC90 (St. aureus [3]; listed as ofloxacin): 1.15 µg/mL (≈ 3.18 µM); concentration in the aqueous humour [4]: about 1.5 µg/ml |
| CCn1cc(C(=O)O)c(=O)c2cc(F)c(N3CCNCC3)cc21 [norfloxacin] |  |  |  |  |  |  |  |  |  |  | does not lead to a reduction in bacterial load | lower corneal concentrations than its MIC50-MIC90 range | MIC50 (St. aureus [5]; lower end of MIC50-MIC90 range for St. aureus): 0.5 µg/mL (≈ 1.57 µM); MIC90 (St. aureus [5]; upper end of MIC50-MIC90 range for St. aureus): 2 µg/mL (≈ 6.26 µM) |
